Test results taken from US12655116B2, “Substituted isophthalic acid diamides” (Bayer Aktiengesellschaft, priority 2020, dated 2026).

Tests used:
AMARE [1] = assay: Post-emergence herbicidal action against AMARE; type: in vivo, Amaranthus retroflexus; conditions: Amaranthus retroflexus, 504 h, visual assessment about 3 weeks after treatment, 100% = plants have died, 0% = like control plants
How it was run: (§1)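 Visual % rating (0% = as untreated, 100% = dead) ~3 wk after spraying one-leaf-stage plants grown in sandy loam; WP/EC in water at 600–800 l/ha, 0.2% wetting agent.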

SETVI [2] = assay: Pre-emergence herbicidal action against SETVI; type: in vivo, Setaria viridis; conditions: Setaria viridis, 504 h; for pest or weed control at 320 g/ha: dosage 320 g/ha
How it was run: (§2)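 Sandy loam pots, seeds covered with soil, then surface-treated with WP or EC formulations at 600–800 l/ha water plus 0.2% wetting agent. Greenhouse, 3 weeks. Percent damage vs untreated controls.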

AMARE [3] = assay: Pre-emergence herbicidal action against AMARE; type: in vivo, Amaranthus retroflexus; conditions: Amaranthus retroflexus, 504 h, 100% = plants have died, 0% = like control plants; for pest or weed control at 20 g/ha / pest or weed control at 80 g/ha: scored visually after 3 weeks vs untreated controls; for pest or weed control at 320 g/ha: scored visually after 3 weeks
How it was run: as §2

VIOTR [4] = assay: Pre-emergence herbicidal action against VIOTR; type: in vivo, Viola tricolor; conditions: Viola tricolor, 504 h; for pest or weed control at 80 g/ha: dosage 80 g/ha; for pest or weed control at 320 g/ha: dosage 320 g/ha
How it was run: as §2

AVEFA = assay: Pre-emergence herbicidal action against AVEFA; type: in vivo, Avena fatua; conditions: Avena fatua, 504 h, pre-emergence
How it was run: as §2

VERPE = assay: Post-emergence herbicidal action against VERPE; type: in vivo, Veronica persica; conditions: Veronica persica, 504 h
How it was run: as §1

VIOTR [5] = assay: Post-emergence herbicidal action against VIOTR; type: in vivo, Viola tricolor; conditions: Viola tricolor, 504 h
How it was run: as §1

PHBPU = assay: Post-emergence herbicidal action against PHBPU; type: in vivo, Pharbitis purpurea; conditions: Ipomoea purpurea, 504 h; for pest or weed control at 80 g/ha: dosage 80 g/ha
How it was run: as §1

ALOMY [6] = assay: Pre-emergence herbicidal action against ALOMY; type: in vivo, Alopecurus myosuroides; conditions: Alopecurus myosuroides, 504 h, pre-emergence; for pest or weed control at 80 g/ha: scored visually after 3 weeks vs untreated controls (100% = plants have died, 0% = like control plants); for pest or weed control at 320 g/ha: scored visually after 3 weeks, 100% = plants have died, 0% = like control plants
How it was run: as §2

LOLRI = assay: Pre-emergence herbicidal action against LOLRI; type: in vivo, Lolium rigidum; conditions: Lolium rigidum, 504 h
How it was run: as §2

HORMU [7] = assay: Pre-emergence herbicidal action against HORMU; type: in vivo, Hordeum murinum; conditions: for pest or weed control at 80 g/ha / pest or weed control at 320 g/ha: Hordeum murinum, 504 h, pre-emergence
How it was run: as §2

STEME [8] = assay: Post-emergence herbicidal action against STEME; type: in vivo, Stellaria media; conditions: Stellaria media, 504 h
How it was run: as §1

ABUTH [9] = assay: Pre-emergence herbicidal action against ABUTH; type: in vivo, Abutilon theophrasti; conditions: Abutilon theophrasti, 504 h; for pest or weed control at 80 g/ha: scored visually after 3 weeks vs untreated controls (100% = plants have died, 0% = like control plants); for pest or weed control at 320 g/ha: Dosage: 320 g/ha, scored visually after 3 weeks; for pest or weed control at 320 g/ha / pest or weed control at 20 g/ha: 100% = plants have died, 0% = like control plants; for pest or weed control at 20 g/ha: dosage 20 g/ha, scored visually after 3 weeks vs untreated controls, read-out: Pre-emergence action against ABUTH (herbicidal activity in percent)
How it was run: as §2

ECHCG = assay: Pre-emergence herbicidal action against ECHCG; type: in vivo, Echinochloa crus-galli; conditions: Echinochloa crus-galli, 504 h
How it was run: as §2

STEME [10] = assay: Pre-emergence herbicidal action against STEME; type: in vivo, Stellaria media; conditions: Stellaria media, 504 h; for pest or weed control at 80 g/ha: dosage 80 g/ha; for pest or weed control at 320 g/ha: dosage 320 g/ha
How it was run: as §2

ALOMY [11] = assay: Post-emergence herbicidal action against ALOMY; type: in vivo, Alopecurus myosuroides; conditions: Alopecurus myosuroides, 504 h, dosage 80 g/ha, visual assessment about 3 weeks after treatment vs untreated controls
How it was run: as §1

POLCO = assay: Pre-emergence herbicidal action against POLCO; type: in vivo, Polygonum convolvulus; conditions: Fallopia convolvulus, 504 h; for pest or weed control at 320 g/ha: dosage 320 g/ha
How it was run: as §2

ABUTH [12] = assay: Post-emergence herbicidal action against ABUTH; type: in vivo, Abutilon theophrasti; conditions: Abutilon theophrasti, 504 h, visual assessment about 3 weeks after treatment vs untreated controls; for pest or weed control at 20 g/ha: dosage 20 g/ha; for pest or weed control at 80 g/ha: dosage 80 g/ha
How it was run: as §1

SETVI [13] = assay: Post-emergence herbicidal action against SETVI; type: in vivo, Setaria viridis; conditions: Setaria viridis, 504 h, dosage 80 g/ha
How it was run: as §1

MATIN = assay: Post-emergence herbicidal action against MATIN; type: in vivo, Matricaria inodora; conditions: Tripleurospermum inodorum, 504 h, dosage 80 g/ha
How it was run: as §1

HORMU [14] = assay: Post-emergence herbicidal action against HORMU; type: in vivo, Hordeum murinum; conditions: Hordeum murinum, 504 h, dosage 80 g/ha
How it was run: as §1

[15] = 20 g/ha, scored visually after 3 weeks, 100% = plants have died, 0% = like control plants
[16] = scored visually after 3 weeks, 100% = plants have died, 0% = like control plants

Question: Which pest or weed control at 20 g/ha (AMARE [1]) does the source give for CCn1nnnc1NC(=O)c1ccc(C(F)(F)F)c(C(=O)NC(C)=O)c1Cl [Example 2-337] here?
Answer: 100%

Question: What about the pest or weed control at 80 g/ha (AMARE [1]) of the same compound?
Answer: 100%

Question: And the pest or weed control at 20 g/ha (SETVI [2]; dosage 20 g/ha)?
Answer: 90%

Question: And the pest or weed control at 80 g/ha (SETVI [2]; dosage 80 g/ha)?
Answer: 100%

Question: What about the pest or weed control at 320 g/ha (SETVI [2]) of the same compound?
Answer: 100%

Question: What about the pest or weed control at 20 g/ha (AMARE [3]) of the same compound?
Answer: 90%

Question: What about the pest or weed control at 80 g/ha (AMARE [3]) of the same compound?
Answer: 100%

Question: And the pest or weed control at 320 g/ha (AMARE [3])?
Answer: 100%

Question: What about the pest or weed control at 20 g/ha (VIOTR [4]; dosage 20 g/ha) of the same compound?
Answer: 90%

Question: And the pest or weed control at 80 g/ha (VIOTR [4])?
Answer: 100%

Question: What about the pest or weed control at 320 g/ha (VIOTR [4]) of the same compound?
Answer: 100%

Question: What about the pest or weed control at 80 g/ha (AVEFA) of the same compound?
Answer: 100%

Question: And the pest or weed control at 20 g/ha (AVEFA; [15])?
Answer: 90%

Question: And the pest or weed control at 320 g/ha (AVEFA; [16])?
Answer: 100%

Question: What about the pest or weed control at 5 g/ha (VERPE; 5 g/ha) of the same compound?
Answer: 80%

Question: And the pest or weed control at 20 g/ha (VERPE)?
Answer: 100%

Question: And the pest or weed control at 80 g/ha (VERPE)?
Answer: 100%

Question: And the pest or weed control at 80 g/ha (VIOTR [5])?
Answer: 90%

Question: And the pest or weed control at 80 g/ha (PHBPU)?
Answer: 80%

Question: What about the pest or weed control at 80 g/ha (ALOMY [6]) of the same compound?
Answer: 90%

Question: And the pest or weed control at 320 g/ha (ALOMY [6])?
Answer: 100%

Question: What about the pest or weed control at 80 g/ha (LOLRI; 80 g/ha) of the same compound?
Answer: 80%

Question: And the pest or weed control at 320 g/ha (LOLRI; 320 g/ha)?
Answer: 90%

Question: What about the “Pre-emergence action against HORMU” value (HORMU [7]; [15]) of the same compound?
Answer: 90%

Question: What about the pest or weed control at 80 g/ha (HORMU [7]) of the same compound?
Answer: 90%

Question: And the pest or weed control at 320 g/ha (HORMU [7])?
Answer: 100%

Question: What about the pest or weed control at 20 g/ha (STEME [8]) of the same compound?
Answer: 90%

Question: And the pest or weed control at 80 g/ha (STEME [8])?
Answer: 90%

Question: And the pest or weed control at 80 g/ha (ABUTH [9])?
Answer: 100%

Question: What about the pest or weed control at 320 g/ha (ABUTH [9]) of the same compound?
Answer: 100%

Question: What about the pest or weed control at 20 g/ha (ABUTH [9]) of the same compound?
Answer: 100%

Question: And the pest or weed control at 20 g/ha (ECHCG; 20 g/ha)?
Answer: 80%

Question: What about the pest or weed control at 80 g/ha (ECHCG; 80 g/ha) of the same compound?
Answer: 100%

Question: What about the pest or weed control at 320 g/ha (ECHCG) of the same compound?
Answer: 100%

Question: And the pest or weed control at 20 g/ha (STEME [10]; dosage 20 g/ha)?
Answer: 90%

Question: What about the pest or weed control at 80 g/ha (STEME [10]) of the same compound?
Answer: 90%

Question: What about the pest or weed control at 320 g/ha (STEME [10]) of the same compound?
Answer: 100%

Question: And the pest or weed control at 80 g/ha (ALOMY [11])?
Answer: 90%

Question: And the pest or weed control at 320 g/ha (POLCO)?
Answer: 80%

Question: And the pest or weed control at 20 g/ha (ABUTH [12])?
Answer: 100%

Question: What about the pest or weed control at 80 g/ha (ABUTH [12]) of the same compound?
Answer: 100%

Question: Which results are given for CCCn1nnnc1NC(=O)c1ccc(C(F)(F)F)c(C(N)=O)c1Cl [Example 3-338]?
Answer: pest or weed control at 20 g/ha (AMARE [1]): 90%; pest or weed control at 80 g/ha (AMARE [1]): 100%; pest or weed control at 320 g/ha (SETVI [2]): 100%; pest or weed control at 20 g/ha (AMARE [3]): 80%; pest or weed control at 80 g/ha (AMARE [3]): 100%; pest or weed control at 320 g/ha (AMARE [3]): 100%; pest or weed control at 80 g/ha (VIOTR [4]): 90%; pest or weed control at 320 g/ha (VIOTR [4]): 100%; pest or weed control at 80 g/ha (AVEFA): 90%; pest or weed control at 320 g/ha (AVEFA; [16]): 100%; pest or weed control at 20 g/ha (VERPE): 90%; pest or weed control at 80 g/ha (VERPE): 90%; pest or weed control at 20 g/ha (VIOTR [5]; 20 g/ha): 90%; pest or weed control at 80 g/ha (VIOTR [5]): 100%; pest or weed control at 20 g/ha (PHBPU; dosage 20 g/ha): 80%; pest or weed control at 80 g/ha (PHBPU): 90%; pest or weed control at 80 g/ha (ALOMY [6]): 80%; pest or weed control at 320 g/ha (ALOMY [6]): 100%; pest or weed control at 80 g/ha (HORMU [7]): 80%; pest or weed control at 320 g/ha (HORMU [7]): 100%; pest or weed control at 20 g/ha (STEME [8]): 100%; pest or weed control at 80 g/ha (STEME [8]): 100%; pest or weed control at 5 g/ha (STEME [8]; dosage 5 g/ha): 80%; pest or weed control at 80 g/ha (SETVI [13]): 90%; pest or weed control at 80 g/ha (ABUTH [9]): 100%; pest or weed control at 320 g/ha (ABUTH [9]): 100%; pest or weed control at 20 g/ha (ABUTH [9]): 90%; pest or weed control at 320 g/ha (ECHCG): 100%; pest or weed control at 80 g/ha (STEME [10]): 90%; pest or weed control at 320 g/ha (STEME [10]): 100%; pest or weed control at 80 g/ha (MATIN): 80%; pest or weed control at 80 g/ha (ALOMY [11]): 100%; pest or weed control at 80 g/ha (HORMU [14]): 100%; pest or weed control at 80 g/ha (POLCO; dosage 80 g/ha): 80%; pest or weed control at 320 g/ha (POLCO): 80%; pest or weed control at 5 g/ha (ABUTH [12]; dosage 5 g/ha): 90%; pest or weed control at 20 g/ha (ABUTH [12]): 90%; pest or weed control at 80 g/ha (ABUTH [12]): 100%
